Source: PMC6155683, “Pharmacokinetics Studies of 12 Alkaloids in Rat Plasma after Oral Administration of Zuojin and Fan-Zuojin Formulas” (Molecules : A Journal of Synthetic Chemistry and Natural …, 2017)
Like-named read-outs stand apart in the source and are kept apart here.

Columns and labels:
[1] = PK study of the 12 alkaloids in rat plasma after oral administration of ZJ and FZJ extract (LC–MS/MS); assay type: in vivo; conditions: rat plasma; for AUC(0-t) / AUC(0-inf) / Cmax / MRT last / MRT inf / half-life / Csec (drug concentration of the secondary peak in C–T curve): mean ± SD, n = 6; for AUC(0-t): read-out: AUC0→t; for AUC(0-inf): read-out: AUC0→∞; for Cmax: read-out: Cmax; for MRT last: read-out: MRT0→t (converted); for MRT inf: read-out: MRT0→∞ (converted); for half-life: read-out: t1/2; for Tmax: read-out: Tmax (converted)
Method: The time schedule included 15 time-points and six rats were sampled at each time-point. All the rats were orally administered with ZJ extract (suspended in water) at a dose of 3.38 g/kg body weight (dosages of the 12 alkaloids were shown in Table S4), equivalent to crude drug dose of 12 g/kg body weight. Blood samples were collected from the suborbital vein of the rats at 10, 20, 30, 60, 90, 120, 180, 240, 300, 330, 360, 480, 720, 1440, 2160 min after administration, and centrifuged immediately at 5000 rpm for 10 min. The plasma samples were stored at −20 °C until analysis.
Similarly, the time schedule of other rats included 15 time-points and six rats were orally administered with FZJ extract at a dose of 3.76 g/kg body weight (also equivalent to crude drug dose of 12 g/kg body weight, Table S4). Blood samples were collected and treated as mentioned above in the PK study of ZJ extract.
PK parameters of the 12 alkaloids including AUC0→t, AUC0→∞, mean retention time (MRT0→t, MRT0→∞), and elimination half-life (t1/2) were calculated with non-compartmental method by DAS 2.0 software (Mathematical Pharmacology Professional Committee of China, Shanghai, China). Maximum plasma drug concentration (Cmax) and time to reach the maximum plasma drug concentration (Tmax) were observed directly from the detected C–T data. The results were expressed as arithmetic mean ± standard deviation (SD).

[2] = Two-compartment model fitting of C–T curves (DAS 2.0); assay type: in vivo, rat
Text: Double peaks in C–T curves were observed repeatedly in the PK study of ZJ and related TCM prescriptions, but explanations to the phenomenon were still ambiguous. Generally, possible reasons for the double peak phenomenon could be summarized as follows: (a) enterohepatic circulation; […] (c) irregular pattern of gastric emptying. […] Moreover, Tmax of the alkaloids after administration of ZJ extract were deferred from that of FZJ administration. […] It probably play a major role in the double peak phenomenon, since the GI motility can affect the drug absorption.

[3] = Dose modified systemic exposure (AUC0→∞/D, Cmax/D)
Method: Because the alkaloids content in ZJ and FZJ were no longer linear with the proportion of CR and EF after extraction process, AUC0→∞/D (ratio of AUC0→∞ and dose) and Cmax/D (ratio of Cmax and dose) were calculated to estimate the dose modified systemic exposure levels of the 12 alkaloids (Table 3). […] Physicochemical properties of these alkaloids had been calculated in silico to predict their human colon adenocarcinoma cell (Caco-2) permeability according to the three-property based rule (3PRule). Polar surface area (PSA), logarithm of the n-octanol/water distribution coefficient (LogD), molecular weight (MW), hydrogen bond donors (HBD), hydrogen bond acceptors (HBA), number of free rotatable bonds (NRB) and molar solubility (S) of the alkaloids were retrieved from SciFinder® (American Chemical Society).

[4] = Stability of analytes in rat plasma under storage conditions; assay type: physicochemical; conditions: n = 6; for Stability RE, 3 freeze-thaw cycles / Stability RE, 30 days at −20 °C: rat plasma; for Stability RE, processed samples' stability: room temperature 24 h
Method: The stabilities of analytes in plasma were assessed by analyzing the QC samples at three concentration levels under the following storage conditions: after three freeze (−20 °C)-thaw (room temperature) cycles; stored at −20 °C for 30 days, and comparing the results with those of freshly prepared QC samples. Stabilities of the processed samples at room temperature for 24 h were also assessed.

Compound | AUC(0-t) ([1]; 3.38 g/kg, oral ZJ extract) [ng·h/mL] | AUC(0-inf) ([1]; 3.38 g/kg, oral ZJ extract) [ng·h/mL] | Cmax ([1]; 3.38 g/kg, oral ZJ extract) [ng/mL] | MRT last ([1]; 3.38 g/kg, oral ZJ extract) [h] | MRT inf ([1]; 3.38 g/kg, oral ZJ extract) [h] | half-life ([1]; 3.38 g/kg, oral ZJ extract) [h] | Tmax ([1]; 3.38 g/kg, oral ZJ extract) [h] | AUC(0-t) ([1]; 3.76 g/kg, oral FZJ extract) [ng·h/mL] | AUC(0-inf) ([1]; 3.76 g/kg, oral FZJ extract) [ng·h/mL] | Cmax ([1]; 3.76 g/kg, oral FZJ extract) [ng/mL] | MRT last ([1]; 3.76 g/kg, oral FZJ extract) [h] | MRT inf ([1]; 3.76 g/kg, oral FZJ extract) [h] | half-life ([1]; 3.76 g/kg, oral FZJ extract) [h] | Tmax ([1]; 3.76 g/kg, oral FZJ extract) [h] | Tsec (time of the secondary peak in C–T curve) ([1]; oral ZJ extract) [min] | Csec (drug concentration of the secondary peak in C–T curve) ([1]; oral ZJ extract) [ng/mL] | AIC (Akaike's information criterion method), two-compartment model fitting ([2]; oral FZJ extract) | r^2 (correlation coefficient method), two-compartment model fitting ([2]; oral FZJ extract) | AIC (Akaike's information criterion method), two-compartment model fitting ([2]; oral ZJ extract) | r^2 (correlation coefficient method), two-compartment model fitting ([2]; oral ZJ extract) | also measured
COc1cc2c(cc1OC)C(=O)NCC2 [corydaldine] | 45.1 ± 7.46 | 47.3 ± 7.36 | 10.3 ± 5.45 | 6.72 | 8.55 | 9.92 ± 2.06 | 1.5 | 2.86 ± 0.35 | 3.1 ± 0.46 | 1.73 ± 0.58 | 2.85 | 3.99 | 3.89 ± 1.29 | 0.5 | 300 | 9.03 ± 4.31 | 3.947 ± 8.187 | 0.805 ± 0.066 | 85.431 ± 9.718 | 0.243 ± 0.267 | AUC0→∞/D (ratio of AUC0→∞ and dose) ([3]; oral FZJ extract): 310.00; Cmax/D (ratio of Cmax and dose) ([3]; oral FZJ extract): 173.00; AUC0→∞/D (ratio of AUC0→∞ and dose) ([3]; oral ZJ extract): 1688.21; Cmax/D (ratio of Cmax and dose) ([3]; oral ZJ extract): 369.29; Stability RE, 3 freeze-thaw cycles ([4]; high QC concentration): −2.29%; Stability RE, 30 days at −20 °C ([4]; high QC concentration): −2.68%; Stability RE, 3 freeze-thaw cycles ([4]; low QC concentration): −1.98%; Stability RE, 30 days at −20 °C ([4]; low QC concentration): 15.65%; Stability RE, 3 freeze-thaw cycles ([4]; medium QC concentration): 3.89%; Stability RE, 30 days at −20 °C ([4]; medium QC concentration): −11.86%; Stability RE, processed samples' stability ([4]; high QC concentration): −10.59%; Stability RE, processed samples' stability ([4]; low QC concentration): 13.85%; Stability RE, processed samples' stability ([4]; medium QC concentration): −6.31%
O=C1NCCc2cc3c(cc21)OCO3 [noroxyhydrastinine] | 133 ± 18.5 | 140 ± 17.8 | 29.6 ± 15.2 | 8.82 | 11 | 10.7 ± 2.82 | 1.5 | 4.95 ± 0.65 | 5.37 ± 0.73 | 3.17 ± 1 | 3.03 | 5.25 | 4.06 ± 2.93 | 0.5 | 300 | 16.29 ± 8.38 | 16.505 ± 12.486 | 0.802 ± 0.128 | 118.137 ± 17.623 | 0.313 ± 0.350 | AUC0→∞/D (ratio of AUC0→∞ and dose) ([3]; oral FZJ extract): 268.50; Cmax/D (ratio of Cmax and dose) ([3]; oral FZJ extract): 158.50; AUC0→∞/D (ratio of AUC0→∞ and dose) ([3]; oral ZJ extract): 1687.47; Cmax/D (ratio of Cmax and dose) ([3]; oral ZJ extract): 357.11; Stability RE, 3 freeze-thaw cycles ([4]; high QC concentration): −9.82%; Stability RE, 30 days at −20 °C ([4]; high QC concentration): −12.1%; Stability RE, 3 freeze-thaw cycles ([4]; low QC concentration): −14.7%; Stability RE, 30 days at −20 °C ([4]; low QC concentration): −8.89%; Stability RE, 3 freeze-thaw cycles ([4]; medium QC concentration): 11.57%; Stability RE, 30 days at −20 °C ([4]; medium QC concentration): −2.75%; Stability RE, processed samples' stability ([4]; high QC concentration): −12.23%; Stability RE, processed samples' stability ([4]; low QC concentration): −8.14%; Stability RE, processed samples' stability ([4]; medium QC concentration): −0.19%
CCCCC=CCCCCCCCc1cc(=O)c2ccccc2n1C [evocarpine] | 55.6 ± 12.4 | 59 ± 13.3 | 24.2 ± 12.9 | 4.19 | 6.52 | 8.99 ± 6.39 | 1 | 17.8 ± 3.99 | 19.6 ± 4.79 | 4.07 ± 0.44 | 7.04 | 9.3 | 6.91 ± 1 | 0.5 | 240 | 7.36 ± 4.89 | 27.61 ± 10.527 | 0.740 ± 0.167 | 78.232 ± 11.393 | 0.734 ± 0.201 | AUC0→∞/D (ratio of AUC0→∞ and dose) ([3]; oral FZJ extract): 13.16; Cmax/D (ratio of Cmax and dose) ([3]; oral FZJ extract): 2.74; AUC0→∞/D (ratio of AUC0→∞ and dose) ([3]; oral ZJ extract): 35.17; Cmax/D (ratio of Cmax and dose) ([3]; oral ZJ extract): 14.42; Stability RE, 3 freeze-thaw cycles ([4]; high QC concentration): 7.91%; Stability RE, 30 days at −20 °C ([4]; high QC concentration): 6.12%; Stability RE, 3 freeze-thaw cycles ([4]; low QC concentration): −19.16%; Stability RE, 30 days at −20 °C ([4]; low QC concentration): 8.28%; Stability RE, 3 freeze-thaw cycles ([4]; medium QC concentration): 3.44%; Stability RE, 30 days at −20 °C ([4]; medium QC concentration): −14.67%; Stability RE, processed samples' stability ([4]; high QC concentration): 3.83%; Stability RE, processed samples' stability ([4]; low QC concentration): 14.05%; Stability RE, processed samples' stability ([4]; medium QC concentration): −14.47%
